Test results: the supplement of paper PMC8882468
± gives the standard deviation of the averaged measurements.

Tests used:
Experiment in all cases: CTG-3D luminescence at 96 h relative to day-0 seeding control (ratio to day 0); higher = more growth / less cytotoxicity; PDxO 3D drug screen, 96 h, CTG-3D normalised to day-0 seeding control.
HCI-002 = tested on: HCI-002 (organoid from a triple-negative breast cancer xenograft)
HCI-012 = tested on: HCI-012 (organoid from a breast cancer xenograft)
HCI-023 = tested on: HCI-023 (organoid from a triple-negative breast cancer xenograft)
HCI-024 = tested on: HCI-024 (organoid from a breast cancer xenograft)
HCI-025 = tested on: HCI-025 (organoid from a breast cancer xenograft)

CC(C)n1nc(-c2ccc3oc(N)nc3c2)c2c(N)ncnc21 [sapanisertib]
CTG-3D luminescence at 96 h
Conditions	12.5 pM	0.00025 µM	0.005 µM	0.1 µM	1 µM	10 µM	100 µM	625 fM
HCI-002, days in culture: 62	2.83	2.68	2.7	0.903	0.579	0.418	0.0431	2.93
HCI-002, days in culture: 82	3.4	3.17	2.04	0.983	0.633	0.403	0.0264	2.93
HCI-002, days in culture: 91	4.16	3.41	2.81	1.44	0.846	0.697	0.0524	4.41
HCI-002, days in culture: 191	2.25	2.71	2.07	1.04	0.718	0.443	0.0974	2.61
HCI-002, days in culture: 209	2.41	2.26	2.27	0.676	0.446	0.209	0.0077	2.18
HCI-002, days in culture: 227	5.28	4.74	4.01	1.33	0.801	0.598	0.0372	5.6
HCI-012, days in culture: 143	1.67	2.13	1.85	1.06	0.799	0.586	0.181	1.68
HCI-012, days in culture: 162	2.13	2.28	1.6	1.27	0.748	0.846	0.197	2.82
HCI-012, days in culture: 201	2.95	2.02	1.89	0.938	1.37	0.293	0.0781	1.73
HCI-023, days in culture: 111	1.32	1.65	1.1	0.701	0.401	0.462	0.0354	1.44
HCI-023, days in culture: 128	1.42 ± 0.12	1.44 ± 0.54	0.963 ± 0.052	0.727 ± 0.098	0.428 ± 0.005	0.484 ± 0.068	0.0623 ± 0.015	1.75 ± 0.43
HCI-024, days in culture: 105	1.5	1.82	1.16	0.885	0.716	0.64	0.243	1.88
HCI-024, days in culture: 122	2.28	2.85	1.86	0.922	0.842	0.81	0.3	2.57
HCI-024, days in culture: 163	2.15	1.91	1.59	1.61	1.1	0.902	0.363	1.85
HCI-025, days in culture: 172	2.78	1.04	1.61	0.407	0.372	0.145	0.00492	2.01
HCI-025, days in culture: 209	1.39	2.18	1.62	0.44	0.256	0.217	0.0409	1.33
HCI-025, days in culture: 218	1.85	2.15	1.44	0.421	0.231	0.291	0.0278	1.99

CS(=O)(=O)c1ccc(C(=O)Nc2ccc(Cl)c(-c3ccccn3)c2)c(Cl)c1 [vismodegib]
CTG-3D luminescence at 96 h
Conditions	12.5 pM	0.00025 µM	0.005 µM	0.1 µM	1 µM	10 µM	100 µM	625 fM
HCI-002, days in culture: 62	2.81	2.88	3.64	3.26	3.05	2.96	0.385	3.01
HCI-002, days in culture: 82	3.27	3.52	2.41	2.65	2.51	2.14	0.287	2.86
HCI-002, days in culture: 91	2.97	2.4	2.04	2.06	1.77	2.07	0.194	2.53
HCI-002, days in culture: 191	3.3	3.25	3.31	3.23	3.62	2.89	0.429	3.41
HCI-002, days in culture: 209	2.66	2.86	2.57	2.3	2.77	2.31	0.207	2.71
HCI-002, days in culture: 227	4.93	4.4	3.59	4.14	3.49	4.34	0.447	5.19
HCI-012, days in culture: 143	2.03	2.38	2.4	2.49	2.42	2.55	0.427	1.88
HCI-012, days in culture: 162	2.64	2.72	2.08	2.88	2.4	2.69	0.492	3
HCI-012, days in culture: 201	2.82	2.26	1.72	1.56	2.33	1.8	0.943	1.59
HCI-023, days in culture: 111	1.92	1.62	1.41	1.48	1.15	1.34	0.248	1.6
HCI-023, days in culture: 128	1.29 ± 0.17	1.4 ± 0.25	1.39 ± 0.23	1.46 ± 0.69	1.31 ± 0.19	1.86 ± 0.42	0.552 ± 0.047	1.67 ± 0.22
HCI-024, days in culture: 105	1.78	1.57	1.53	1.77	1.64	1.97	1.09	1.64
HCI-024, days in culture: 122	1.39	1.99	2.14	2.07	2.27	2.75	1.23	2.04
HCI-024, days in culture: 163	1.93	2.3	1.87	2.29	2.2	2.36	1.4	2.01
HCI-025, days in culture: 172	3.09	1.78	3.88	2.18	2.97	1.37	0.368	2.37
HCI-025, days in culture: 209	1.85	2.63	2.69	1.56	2.47	1.4	0.0933	1.57
HCI-025, days in culture: 218	1.48	1.67	2.01	1.69	1.56	1.88	-0.104	1.87

C[C@H](NC(=O)CCC(F)(F)F)C(=O)N[C@@H]1C(=O)N(CCO)c2ncccc2-c2ccccc21 [crenigacestat]
CTG-3D luminescence at 96 h
Conditions	12.5 pM	0.00025 µM	0.005 µM	0.1 µM	1 µM	10 µM	100 µM	625 fM
HCI-002, days in culture: 62	2.87	2.47	2.56	2.68	2.3	2.72	2.8	2.91
HCI-002, days in culture: 82	3.27	3.18	2.46	2.78	2.76	2.69	2.21	2.76
HCI-002, days in culture: 91	3.89	3.6	2.93	3.44	3.36	3.56	2.88	3.82
HCI-002, days in culture: 191	2.59	2.32	2.2	2.19	2.46	2.35	2.4	2.36
HCI-002, days in culture: 209	2.47	2.47	2.22	1.91	2.27	1.93	2.41	2.29
HCI-002, days in culture: 227	5.37	5.77	5.03	5.6	4.74	4.97	3.7	4.95
HCI-012, days in culture: 143	1.9	1.85	1.63	2.49	2.07	2.78	2.65	1.78
HCI-012, days in culture: 162	2.11	2.3	1.74	2.93	1.87	2.96	2.74	2.57
HCI-012, days in culture: 201	2.55	1.94	1.82	1.75	2.3	1.67	2.55	1.72
HCI-023, days in culture: 111	1.05	1.15	1.17	0.954	0.7	1.28	0.926	1.3
HCI-023, days in culture: 128	1.4 ± 0.13	1.35 ± 0.62	1.31 ± 0.068	1.51 ± 0.061	1.05 ± 0.19	1.52 ± 0.16	1.13 ± 0.32	1.53 ± 0.55
HCI-024, days in culture: 105	1.19	1.65	1.35	1.59	2.01	1.98	1.62	1.56
HCI-024, days in culture: 122	1.95	1.76	1.92	1.72	1.97	2.75	2	2.55
HCI-024, days in culture: 163	1.93	2.2	2.01	2.48	2.19	2.38	1.88	1.86
HCI-025, days in culture: 172	2.73	1.6	2.79	2.23	3.2	1.64	1.98	2.44
HCI-025, days in culture: 209	2.02	2.25	2.26	1.61	1.76	1.57	1.45	1.58
HCI-025, days in culture: 218	1.89	2.02	1.67	1.69	1.75	2.32	1.58	2.02

O=C(/C=C/c1cccnc1)NCCCCC1CCN(C(=O)c2ccccc2)CC1 [FK866]
CTG-3D luminescence at 96 h
Conditions	12.5 pM	0.00025 µM	0.005 µM	0.1 µM	1 µM	10 µM	100 µM	625 fM
HCI-002, days in culture: 62	2.68	2.55	1.43	0.0472	0.0154	0.014	0.0284	3.07
HCI-002, days in culture: 82	2.77	3.14	0.508	0.0661	0.0553	0.0327	0.0409	3.06
HCI-002, days in culture: 91	3.92	3.63	1.55	0.0716	0.0287	0.025	0.0475	4.36
HCI-002, days in culture: 191	2.81	2.7	0.424	0.0805	0.0595	0.0599	0.0916	2.43
HCI-002, days in culture: 209	2.49	2.33	1.05	0.0589	0.0401	0.0272	0.062	2.4
HCI-002, days in culture: 227	5.05	5.39	3.02	0.104	0.0406	0.0434	0.0754	5.65
HCI-012, days in culture: 143	1.77	2.17	0.328	0.0872	0.0769	0.0863	0.175	1.84
HCI-012, days in culture: 162	2.18	2.1	0.129	0.0723	0.0448	0.085	0.127	2.72
HCI-012, days in culture: 201	2.67	0.11	0.33	0.0389	0.128	0.0435	0.115	1.67
HCI-023, days in culture: 111	1.12	1.65	0.244	0.0924	0.0716	0.0618	0.0864	1.25
HCI-023, days in culture: 128	1.73 ± 0.35	1.55 ± 0.36	0.315 ± 0.02	0.153 ± 0.032	0.103 ± 0.018	0.135 ± 0.015	0.123 ± 0.029	1.8 ± 0.19
HCI-024, days in culture: 105	1.87	1.72	0.265	0.2	0.157	0.205	0.272	2.1
HCI-024, days in culture: 122	2.43	2.32	0.648	0.179	0.209	0.222	0.172	2.91
HCI-024, days in culture: 163	1.91	2.21	0.305	0.221	0.181	0.166	0.306	1.89
HCI-025, days in culture: 172	3.12	0.0766	0.075	0.0447	0.0404	0.0184	-0.00051	2.06
HCI-025, days in culture: 209	2.08	1.82	0.314	0.0825	0.0624	0.0413	0.0255	2.16
HCI-025, days in culture: 218	1.78	2.01	0.0772	0.031	0.013	0.00874	0.00784	1.85
